This note sets out measurements from patent publication US9328122B2, “7-substituted Hanfangichin B derivative, and preparation method and use thereof” (HANGZHOU BENSHENG PHARMACEUTICAL CO., LTD., priority 2012, dated 2016).

Structures are written as SMILES. In brackets after ≈: the same amount, converted by molar mass.

One experiment concerns MGC-803 (human gastric cancer) cells. Kind of experiment: MTT cell growth inhibition, solid tumor cells. The format is cell-based. The settings on record: MGC-803, 72 h, MTT, read-out: IC50. Summed up:
(§1)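 MTT was used to measure cell survival. Wells held 6000 cells in 10% FBS high-glucose DMEM, pre-incubated 24 h, then dosed with compound at various concentrations for 72 h (37 °C, 5% CO2).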
What is called IC50 is the concentration that gives 50% inhibition. In the case of `COc1ccc2cc1Oc1ccc(cc1)C[C@H]1c3cc(c(OC)cc3CCN1C)Oc1c(OCC(O)CNCC3CC3)c(OC)cc3c1[C@H](C2)N(C)CC3` (stereo partly drawn) [BS-FC-405], the IC50 came to 0.88 µg/mL (≈ 1.2 µM).

Turning to `C=CCN(C)CC(O)COc1c(OC)cc2c3c1Oc1cc4c(cc1OC)CCN(C)[C@H]4Cc1ccc(cc1)Oc1cc(ccc1OC)C[C@@H]3N(C)CC2` (stereo partly drawn) [BS-FC-409], the IC50 is 0.94 µg/mL (≈ 1.28 µM).

For `COc1ccc2cc1Oc1ccc(cc1)C[C@H]1c3cc(c(OC)cc3CCN1C)Oc1c(OCC(O)CN3CCCC(C)C3)c(OC)cc3c1[C@H](C2)N(C)CC3` (stereo partly drawn) [BS-FC-410], the IC50 was determined as 0.49 µg/mL (≈ 0.641 µM).

Take `COc1ccc2cc1Oc1ccc(cc1)C[C@H]1c3cc(c(OC)cc3CCN1C)Oc1c(OCC(O)CN3CCSCC3)c(OC)cc3c1[C@H](C2)N(C)CC3` (stereo partly drawn) [BS-FC-417]: the IC50 was determined as 1.49 µg/mL (≈ 1.94 µM).

As to `COc1ccc2cc1Oc1ccc(cc1)C[C@H]1c3cc(c(OC)cc3CCN1C)Oc1c(OCC(O)CN3CCN(C#N)CC3)c(OC)cc3c1[C@H](C2)N(C)CC3` (stereo partly drawn) [BS-FC-421], the IC50 is 0.84 µg/mL (≈ 1.08 µM).

The same experiment, now with this note: MGC-803, 72 h, MTT, read-out: IC90.
Broadly, the IC90 is the concentration needed for an effect of 90%. `COc1ccc2cc1Oc1ccc(cc1)C[C@H]1c3cc(c(OC)cc3CCN1C)Oc1c(OCC(O)CNCC3CC3)c(OC)cc3c1[C@H](C2)N(C)CC3` (stereo partly drawn) [BS-FC-405]: the IC90 turned out to be 3.59 µg/mL (≈ 4.88 µM).

Take `C=CCN(C)CC(O)COc1c(OC)cc2c3c1Oc1cc4c(cc1OC)CCN(C)[C@H]4Cc1ccc(cc1)Oc1cc(ccc1OC)C[C@@H]3N(C)CC2` (stereo partly drawn) [BS-FC-409]: the IC90 came out at 16 µg/mL (≈ 21.7 µM).

For `COc1ccc2cc1Oc1ccc(cc1)C[C@H]1c3cc(c(OC)cc3CCN1C)Oc1c(OCC(O)CN3CCCC(C)C3)c(OC)cc3c1[C@H](C2)N(C)CC3` (stereo partly drawn) [BS-FC-410], the IC90 came out at 3.21 µg/mL (≈ 4.2 µM).

As for `COc1ccc2cc1Oc1ccc(cc1)C[C@H]1c3cc(c(OC)cc3CCN1C)Oc1c(OCC(O)CN3CCSCC3)c(OC)cc3c1[C@H](C2)N(C)CC3` (stereo partly drawn) [BS-FC-417], the 90% effect concentration (IC90) is 12.9 µg/mL (≈ 16.8 µM).

Consider `COc1ccc2cc1Oc1ccc(cc1)C[C@H]1c3cc(c(OC)cc3CCN1C)Oc1c(OCC(O)CN3CCN(C#N)CC3)c(OC)cc3c1[C@H](C2)N(C)CC3` (stereo partly drawn) [BS-FC-421], for which the IC90 was 4.44 µg/mL (≈ 5.72 µM).

The next experiment concerns A549 (human lung cancer) cells. Kind of experiment: MTT cell growth inhibition, solid tumor cells. It counts as cell-based. The settings on record: Homo sapiens; A549, 72 h, MTT; read-out: IC50. In outline:
as §1
Turning to `COc1ccc2cc1Oc1ccc(cc1)C[C@H]1c3cc(c(OC)cc3CCN1C)Oc1c(OCC(O)CNCC3CC3)c(OC)cc3c1[C@H](C2)N(C)CC3` (stereo partly drawn) [BS-FC-405], the IC50 stood at 1.94 µg/mL (≈ 2.64 µM).

On to `C=CCN(C)CC(O)COc1c(OC)cc2c3c1Oc1cc4c(cc1OC)CCN(C)[C@H]4Cc1ccc(cc1)Oc1cc(ccc1OC)C[C@@H]3N(C)CC2` (stereo partly drawn) [BS-FC-409], for which the IC50 is 2.98 µg/mL (≈ 4.05 µM).

For the molecule `COc1ccc2cc1Oc1ccc(cc1)C[C@H]1c3cc(c(OC)cc3CCN1C)Oc1c(OCC(O)CN3CCCC(C)C3)c(OC)cc3c1[C@H](C2)N(C)CC3` (stereo partly drawn) [BS-FC-410], the IC50 came to 1.71 µg/mL (≈ 2.24 µM).

Regarding `COc1ccc2cc1Oc1ccc(cc1)C[C@H]1c3cc(c(OC)cc3CCN1C)Oc1c(OCC(O)CN3CCSCC3)c(OC)cc3c1[C@H](C2)N(C)CC3` (stereo partly drawn) [BS-FC-417], the IC50 was found to be 3.77 µg/mL (≈ 4.91 µM).

As to `COc1ccc2cc1Oc1ccc(cc1)C[C@H]1c3cc(c(OC)cc3CCN1C)Oc1c(OCC(O)CN3CCN(C#N)CC3)c(OC)cc3c1[C@H](C2)N(C)CC3` (stereo partly drawn) [BS-FC-421], the IC50 is 3.78 µg/mL (≈ 4.87 µM).

The same experiment, now with this note: Homo sapiens; A549, 72 h, MTT; read-out: IC90.
For `COc1ccc2cc1Oc1ccc(cc1)C[C@H]1c3cc(c(OC)cc3CCN1C)Oc1c(OCC(O)CNCC3CC3)c(OC)cc3c1[C@H](C2)N(C)CC3` (stereo partly drawn) [BS-FC-405], the IC90 came out at 5.89 µg/mL (≈ 8 µM).

With `C=CCN(C)CC(O)COc1c(OC)cc2c3c1Oc1cc4c(cc1OC)CCN(C)[C@H]4Cc1ccc(cc1)Oc1cc(ccc1OC)C[C@@H]3N(C)CC2` (stereo partly drawn) [BS-FC-409], the IC90 amounted to 8.43 µg/mL (≈ 11.5 µM).

For the molecule `COc1ccc2cc1Oc1ccc(cc1)C[C@H]1c3cc(c(OC)cc3CCN1C)Oc1c(OCC(O)CN3CCCC(C)C3)c(OC)cc3c1[C@H](C2)N(C)CC3` (stereo partly drawn) [BS-FC-410], the IC90 turned out to be 6.8 µg/mL (≈ 8.9 µM).

Consider `COc1ccc2cc1Oc1ccc(cc1)C[C@H]1c3cc(c(OC)cc3CCN1C)Oc1c(OCC(O)CN3CCSCC3)c(OC)cc3c1[C@H](C2)N(C)CC3` (stereo partly drawn) [BS-FC-417], for which the IC90 amounted to 11.7 µg/mL (≈ 15.2 µM).

`COc1ccc2cc1Oc1ccc(cc1)C[C@H]1c3cc(c(OC)cc3CCN1C)Oc1c(OCC(O)CN3CCN(C#N)CC3)c(OC)cc3c1[C@H](C2)N(C)CC3` (stereo partly drawn) [BS-FC-421]: the IC90 was 10.2 µg/mL (≈ 13.1 µM).

The subject of a further experiment is Hep-2 (laryngeal carcinoma) cells. Kind of experiment: MTT cell growth inhibition, solid tumor cells. It counts as cell-based. As to conditions: Homo sapiens; Hep-2, 72 h, MTT; read-out: IC50. Summed up: as §1
For the molecule `COc1ccc2cc1Oc1ccc(cc1)C[C@H]1c3cc(c(OC)cc3CCN1C)Oc1c(OCC(O)CNCC3CC3)c(OC)cc3c1[C@H](C2)N(C)CC3` (stereo partly drawn) [BS-FC-405], the IC50 was 1.67 µg/mL (≈ 2.27 µM).

On to `C=CCN(C)CC(O)COc1c(OC)cc2c3c1Oc1cc4c(cc1OC)CCN(C)[C@H]4Cc1ccc(cc1)Oc1cc(ccc1OC)C[C@@H]3N(C)CC2` (stereo partly drawn) [BS-FC-409], for which the IC50 is 1.79 µg/mL (≈ 2.43 µM).

Take `COc1ccc2cc1Oc1ccc(cc1)C[C@H]1c3cc(c(OC)cc3CCN1C)Oc1c(OCC(O)CN3CCCC(C)C3)c(OC)cc3c1[C@H](C2)N(C)CC3` (stereo partly drawn) [BS-FC-410]: the IC50 was 2.25 µg/mL (≈ 2.95 µM).

In the case of `COc1ccc2cc1Oc1ccc(cc1)C[C@H]1c3cc(c(OC)cc3CCN1C)Oc1c(OCC(O)CN3CCSCC3)c(OC)cc3c1[C@H](C2)N(C)CC3` (stereo partly drawn) [BS-FC-417], the concentration for half-maximal inhibition (IC50) is 2.36 µg/mL (≈ 3.07 µM).

Take `COc1ccc2cc1Oc1ccc(cc1)C[C@H]1c3cc(c(OC)cc3CCN1C)Oc1c(OCC(O)CN3CCN(C#N)CC3)c(OC)cc3c1[C@H](C2)N(C)CC3` (stereo partly drawn) [BS-FC-421]: the IC50 was determined as 1.92 µg/mL (≈ 2.47 µM).

The experiment is the same for the next values; noted with them: Homo sapiens; Hep-2, 72 h, MTT; read-out: IC90.
For the molecule `COc1ccc2cc1Oc1ccc(cc1)C[C@H]1c3cc(c(OC)cc3CCN1C)Oc1c(OCC(O)CNCC3CC3)c(OC)cc3c1[C@H](C2)N(C)CC3` (stereo partly drawn) [BS-FC-405], the IC90 came out at 4.81 µg/mL (≈ 6.54 µM).

Regarding `C=CCN(C)CC(O)COc1c(OC)cc2c3c1Oc1cc4c(cc1OC)CCN(C)[C@H]4Cc1ccc(cc1)Oc1cc(ccc1OC)C[C@@H]3N(C)CC2` (stereo partly drawn) [BS-FC-409], the concentration for an effect of 90% (IC90) is 5.54 µg/mL (≈ 7.53 µM).

Regarding `COc1ccc2cc1Oc1ccc(cc1)C[C@H]1c3cc(c(OC)cc3CCN1C)Oc1c(OCC(O)CN3CCCC(C)C3)c(OC)cc3c1[C@H](C2)N(C)CC3` (stereo partly drawn) [BS-FC-410], the IC90 worked out at 8 µg/mL (≈ 10.5 µM).

For `COc1ccc2cc1Oc1ccc(cc1)C[C@H]1c3cc(c(OC)cc3CCN1C)Oc1c(OCC(O)CN3CCSCC3)c(OC)cc3c1[C@H](C2)N(C)CC3` (stereo partly drawn) [BS-FC-417], the IC90 came out at 6.03 µg/mL (≈ 7.85 µM).

As for `COc1ccc2cc1Oc1ccc(cc1)C[C@H]1c3cc(c(OC)cc3CCN1C)Oc1c(OCC(O)CN3CCN(C#N)CC3)c(OC)cc3c1[C@H](C2)N(C)CC3` (stereo partly drawn) [BS-FC-421], the IC90 stood at 8.95 µg/mL (≈ 11.5 µM).
